Experimental data taken from patent US4416826A, “Peresters and use thereof” (priority 1980, dated 1983).

Experiments:
[1] = Relative quantum yield of initiator decomposition in presence of monomer (IR at 1770 cm^-1); assay type: physicochemical; settings: benzene, initiator 2 × 10^-2 M
Experimental: (§1) Commercial methyl methacrylate monomer is washed three times with 2% NaOH solution to remove stabilizer. It is then washed with distilled water three times, dried with molecular sieves, and distilled under vacuum before use. Polymerization solutions are prepared in cylindrical tubes which are degassed and sealed. The amount of polymer formed is determined by precipitating the polymer with an excess of methanol, washing with methanol, and filtering through fine sintered crucibles (previously weighed) followed by drying in a vacuum oven. The irradiation condition is the same as that in the decomposition rate example hereinabove.
The irradiations are carried out in degassed (three cycles of freeze-thaw under high vacuum) sealed 15-mm Pyrex tubes. The tubes are placed in a merry-go-round with a filtered UV source of 366 nm at the center and the yield of polymer is measured (below 10% conversion) gravimetrically. In all of the cases, tubes of the same size and same volume of solution are used. Number-average molecular weights of the purified polymers are determined by viscometry in a benzene solution. […] The solution then is centrifuged and the IR of the centrifugate is measured to determine undecomposed perester. […] The light intensity is measured by benzophenone-benzhydrol actinometry and observed to be Io =6.56×10^17 quanta/min on the average. […]

[2] = Photopolymerization of styrene, radical efficiency
Experimental: (§2) Commercial styrene is washed three times with ice cold 2% NaOH solution followed by washing (four times) with distilled water. The styrene is dried over anhydrous CaCl2 and distilled under vacuum before use. The middle fraction of the distillate is used for polymerization. Solvents are purified by conventional means and distilled under N2 atmosphere.
(§3) The irradiations are carried out in degassed (three cycles of freeze-thaw under high vacuum) sealed 15-mm Pyrex tubes. The tubes are placed in a merry-go-round with a filtered UV source of 366 nm at the center and the yield of polymer is measured (below 10% conversion) gravimetrically. In all of the cases, tubes of the same size and same volume of solution are used. Number-average molecular weights of the purified polymers are determined by viscometry in a benzene solution. After the polymerization, an aliquot of 0.5 ml from each reaction tube is placed in 2-ml volumetric flasks. The solvent and excess monomer are evaporated under high vacuum for several hours. The remaining flask contents are dissolved in 0.5 ml of benzene or chloroform and the polymer is precipitated by adding 0.5 ml of n-hexane. The solution then is centrifuged and the IR of the centrifugate is measured to determine undecomposed perester. All of the above procedures are carried out as far as possible in the dark. The light intensity is measured by benzophenone-benzhydrol actinometry and observed to be Io =6.56×10^17 quanta/min on the average. The temperature of the tubes is maintained at 30° C.
The efficiency of the radicals to initiate polymerization, f, in the absence of any appreciable amount of chain transfer, can be defined as [formula] assuming bimolecular termination by the combination of two growing chains only [formula] whereas kd =rate of decomposition of perester in mol/liter sec. in the absence of monomer (a function of light intensity).

[3] = Polymerization of methyl methacrylate; settings: initiator 5 × 10^-2 M, [MMA] = 3.1 M, 25° C., benzene
Experimental: as §1

[4] = Relative quantum yield of initiator decomposition in presence of monomer (IR at 1770 cm^-1); assay type: physicochemical; settings: for relative quantum yield φrel of decomposition: benzene, initiator 2 × 10^-2 M
Experimental: as §2, §3
The decomposition of the initiator employed is followed by IR at 1770 cm^-1 (caused by the carbonyl adjacent to the peroxy group) against an appropriate solvent blank. The initiators employed are .rho.-benzoylperoxybenzoic acid tert-butylester (Ia) and prior art benzophenone peroxide. In addition, the above procedure is repeated except that methyl methacrylate is employed in place of styrene. Table IX below illustrates the relative quantum yield for the decomposition of the initiators in the recited amounts of monomers, assuming that the quantum yield for the decomposition of the perester and peroxide in the absence of any monomer is one.

[5] = Thermal stability / thermal decomposition of peresters in the dark; assay type: physicochemical; settings: 110° C., chlorobenzene, dark; initial concn Ia 5.01, Ib 5.15, Ic 5.19 × 10^-2 M
[6] = Photodecomposition kinetics and quantum yields at 366 nm (benzophenone-benzhydrol actinometry); assay type: physicochemical
Experimental: Kinetic studies are carried out in degassed, sealed tubes by irradiating them with 366 nm light obtained from a Hanovia medium-pressure mercury lamp by combining the Corning Filters 0-52 and 7-60. The decompositions of the […] followed by the carbonyl IR absorption adjacent to the peroxide group (O=COO--) (1770 cm^-1). Benzophenone-benzhydrol redox actinometry are used throughout the study. In particular, a solution of […] (2 mL) in the appropriate solvent is placed in Pyrex tubes (12-mm diameter), degassed, and sealed under vacuum. Three cycles of freeze-thaw removes dissolved oxygen. The tubes are placed in a merry-go-round around a water-cooled light source, removed at different predetermined intervals, and kept frozen in liquid nitrogen in the dark until analysis is done. The estimation of […] done by quantitative IR, monitoring the carbonyl peak at 1770 cm^-1. […] Absorbance is measured with a 0.1 mm NaCl cell against solvent reference. With every run, two tubes containing actinometric solutions (benzophenone (0.1 M) and benzhydrol (0.05 M) in benzene are irradiated.

[7] = benzene, [I] 0.31 × 10^-3 M, [M] 3.5 M
[8] = benzene, [I] 0.63 × 10^-3 M, [M] 3.5 M
[9] = benzene, [I] 1.15 × 10^-3 M, [M] 3.5 M
[10] = benzene, [I] 2.52 × 10^-3 M, [M] 3.5 M
[11] = benzene, [I] 5.03 × 10^-3 M, [M] 3.5 M
[12] = benzene, [I] 8.05 × 10^-3 M, [M] 3.5 M
[13] = benzene, [I] 10.0 × 10^-3 M, [M] 2.0 M
[14] = benzene, [I] 10.0 × 10^-3 M, [M] 3.5 M
[15] = benzene, [I] 10.0 × 10^-3 M, [M] 5.0 M
[16] = chloroform, [I] 1.11 × 10^-3 M, [M] 4.33 M
[17] = chloroform, [I] 2.28 × 10^-3 M, [M] 4.33 M
[18] = chloroform, [I] 5.14 × 10^-3 M, [M] 4.33 M
[19] = chloroform, [I] 9.92 × 10^-3 M, [M] 4.33 M

Structure (SMILES): CC(C)(C)OOC(=O)c1ccc(C(=O)c2ccccc2)cc1 [Ia, t-Butyl-4-Benzoylperbenzoate]
- relative quantum yield φrel of decomposition ([1]; methyl methacrylate 2.34 M): 0.88
- relative quantum yield φrel of decomposition ([1]; methyl methacrylate 4.68 M): 0.80
- radical efficiency, in words [2]: approaches unity at low initiator concentrations
- kd, rate of decomposition of perester in the absence of monomer ([2]; Table X footnote): 0.000512 mol/L/s
- Average degree of polymerization [2, 7]: 320.4
- Radical efficiency f [2, 7]: 0.92
- Rp × 10^5 [2, 7]: 0.65 mole/liter sec
- φrel [2, 7]: 0.14
- Average degree of polymerization [2, 8]: 166.7
- Radical efficiency f [2, 8]: 1.21
- Rp × 10^5 [2, 8]: 0.92 mole/liter sec
- φrel [2, 8]: 0.14
- Average degree of polymerization [2, 9]: 155.5
- Radical efficiency f [2, 9]: 1.00
- Rp × 10^5 [2, 9]: 1.29 mole/liter sec
- φrel [2, 9]: 0.14
- Average degree of polymerization [2, 10]: 102.8
- Radical efficiency f [2, 10]: 0.79
- Rp × 10^5 [2, 10]: 1.47 mole/liter sec
- φrel [2, 10]: 0.14
- Average degree of polymerization [2, 11]: 85.7
- Radical efficiency f [2, 11]: 0.56
- Rp × 10^5 [2, 11]: 1.72 mole/liter sec
- φrel [2, 11]: 0.14
- Average degree of polymerization [2, 12]: 77.2
- Radical efficiency f [2, 12]: 0.41
- Rp × 10^5 [2, 12]: 1.83 mole/liter sec
- φrel [2, 12]: 0.14
- Average degree of polymerization [2, 13]: 48.0
- Radical efficiency f [2, 13]: 0.16
- Rp × 10^5 [2, 13]: 0.95 mole/liter sec
- φrel [2, 13]: 0.25
- Average degree of polymerization [2, 14]: 137.2
- Radical efficiency f [2, 14]: 0.15
- Rp × 10^5 [2, 14]: 1.50 mole/liter sec
- φrel [2, 14]: 0.14
- Average degree of polymerization [2, 15]: 219.2
- Radical efficiency f [2, 15]: 0.16
- Rp × 10^5 [2, 15]: 2.08 mole/liter sec
- φrel [2, 15]: 0.12
- φrel ([2]; chloroform, [I] 0.14 × 10^-3 M, [M] not given): 1.32
- Average degree of polymerization [2, 16]: 186.0
- Radical efficiency f [2, 16]: 0.89
- Rp × 10^5 [2, 16]: 1.32 mole/liter sec
- φrel [2, 16]: 0.14
- Average degree of polymerization [2, 17]: 130.0
- Radical efficiency f [2, 17]: 0.86
- Rp × 10^5 [2, 17]: 1.83 mole/liter sec
- Average degree of polymerization [2, 18]: 102.9
- Radical efficiency f [2, 18]: 0.37
- Rp × 10^5 [2, 18]: 2.01 mole/liter sec
- Average degree of polymerization [2, 19]: 80.5
- Radical efficiency f [2, 19]: 0.40
- Rp × 10^5 [2, 19]: 2.29 mole/liter sec
- rate of polymerization of styrene, in words ([2]; same concentration of initiators and monomer): almost double
- Rate of Polymerization (Rp) of MMA, Rp × 10^5 [3]: 8.33 mL^-1 s^-1
- effect of styrene on quantum yield of decomposition, in words [4]: Styrene drastically reduces the quantum yield of decomposition
- relative quantum yield φrel of decomposition ([4]; styrene 1.09 M): 0.25
- relative quantum yield φrel of decomposition ([4]; styrene 2.19 M): 0.20
- relative quantum yield φrel of decomposition ([4]; styrene 3.28 M): 0.14
- relative quantum yield φrel of decomposition ([4]; styrene 4.37 M): 0.12
- relative quantum yield φrel of decomposition ([4]; styrene 8.73 M): very low
- thermal 1st order dec rate × 10^5 [5]: 2.88 M × 10^5 s^-1
- thermal half-life t1/2 [5]: 6.7 h
- photodecomposition behaviour, in words ([6]; 366 nm radiation, room temperature): decomposes smoothly at room temperature
- apparent first-order photodecomposition rate constant kd × 10^4 ([6]; C6 H6, 25° C., 366 nm, I = 6.56 × 10^17 quanta/min, 5.03-6.06 × 10^-2 M, given as kd × 10^4): 1.84 s^-1
- quantum yield of decomposition (φ of dec) ([6]; C6 H6, 366 nm, perester 5.03-6.06 × 10^-2 M): 0.94
- quantum yield of decomposition (φ of dec) ([6]; CCl4, 3.56 × 10^-2 M, TBP 3.76 × 10^-2 M): 0.74
- quantum yield of decomposition (φ of dec) ([6]; CCl4, 3.56 × 10^-2 M, no TBP): 0.90
- quantum yield of decomposition (φ of dec) ([6]; CCl4, 4.78 × 10^-2 M, TBP 5.01 × 10^-2 M): 0.79
- quantum yield of decomposition (φ of dec) ([6]; CCl4, 7.16 × 10^-2 M, no TBP): 1.05
- quantum yield of decomposition (φ of dec) ([6]; methanol, TBP 5.08 × 10^-2 M, Ia 5.38, Ib 6.15 × 10^-2 M): 0.64
- quantum yield of decomposition (φ of dec) ([6]; methanol, no TBP, Ia 5.38, Ib 6.15, Ic 5.10 × 10^-2 M): 2.77
